Measured values published in US20180320177A1, “COMPOSITIONS AND METHODS FOR THE TREATMENT OF LIVER FIBROSIS” (UNIVERSITY OF CONNECTICUT, priority 2015, published 2018).
“Also recorded” adds a separate entry of the source.

System: CCl4-induced liver fibrosis
Test: CCl4-induced liver fibrosis model in mice (Masson Trichrome, ALT, gross morphology)
Type: in vivo, mouse
Method: Animal Care: All animal care and experimental procedures were approved by the Institutional Animal Care and Use Committee at the University of Connecticut. Shp^−/− mice were described previously. Hmgb2^−/− mice were obtained from Dr. Stella Tsirka at Stony Brook University. C57BL/6J mice were purchased from Jackson Laboratory. All mice were maintained on a 12-h light/dark cycle with free access to food and water unless otherwise indicated. For CCl4 treatment, CCl4 (Sigma) was dissolved in corn oil and administered to mice at a dose of 850 μl/kg BW by intraperitoneal injection (IP) twice a week for 6 or 10 weeks with or without ICM. Age-matched control mice were treated with a corn oil vehicle. For CCl4+ICM treatment, mice were treated with CCl4 for 2 weeks and then ICM (Department of Pharmaceutical Sciences at UConn) was dissolved in PEG (Sigma) and treated with mice (10 mg/kg) every day for 4 or 8 weeks in combination with CCl4. To induce overexpression of HMGB2 in liver, AAV8-Hmgb2 or a control AAV8-GFP was given to mice by tail vein injection at a dose of 5×10^10 GC. To knockdown HMGB2 in mouse livers, AAV-shHmgb2 or a control AAV-shGFP was delivered to mice at a dose of 2×10^10 GC by tail vein injection. One week later, mice injected with AAVs were treated with CCl4 or CCl4 +ICM as described above and sacrificed. Livers were removed and snap-frozen in liquid nitrogen for RNA and protein analysis. For the collection of mouse fetal livers, pregnant female mice were sacrificed at E12.5, E15, and E18.5 and livers were removed from the embryos. Additionally, post-natal mouse livers were harvested at postnatal day P1 and P60.
Histology: Livers were fixed in 10% neutral buffered formalin and embedded in paraffin. Liver blocks were cut at 5 μm and the sections were stained with hematoxylin and eosin (H&E) and Masson's trichrome according to standard procedures.
ALT and AST: Alanine transaminase (ALT) and Aspartate aminotransferase (AST) were measured by Infinity ALT (GPT) Liquid Stable Reagent and AST (GOT) Liquid Stable Reagent according to the manufacturer's instructions (Thermo Scientific).
For CCl4 treatment, CCl4 (Sigma) was dissolved in corn oil and administered to mice at a dose of 850 µl/kg BW by intraperitoneal injection (IP) twice a week for 6 or 10 weeks with or without ICM. Age-matched control mice were treated with a corn oil vehicle. For CCl4+ICM treatment, mice were treated with CCl4 for 2 weeks and then ICM (Department of Pharmaceutical Sciences at UConn) was dissolved in PEG (Sigma) and treated with mice (10 mg/kg) every day for 4 or 8 weeks in combination with CCl4. To induced overexpression of HMGB2 in liver, AAV8-Hmgb2 or a control AAV8-GFP was given to mice by tail vein injection at a dose of 5×10^10 GC. […]

## CC1(C)Oc2cc(O)ccc2C2C1=CCn1c(=O)n(-c3ccccc3)c(=O)n12 (stereo not shown) [ICM, inflachromene]
ICM 10 mg/kg i.p. daily for 4 wks (FIG. 16B)
  liver gross morphology: improved liver gross morphology
ICM 10 mg/kg i.p. daily for 4 wks (FIG. 16C)
  plasma ALT levels: decreased plasma ALT levels
ICM (FIG. 5B)
  serum ALT: decreases
ICM in PEG 10 mg/kg i.p. daily for 4 wks, Masson Trichrome staining
  liver fibrosis: decreases; also recorded: diminished liver fibrosis
